For this assay, the system named is HCV replicon I389luc-ubi-neo/NS3-3′/ET in ET (Huh-lucubineo-ET) cell line. The experiment in a line: Replicon assay (luciferase reporter). Format: cell-based. The note with it: Hepatitis C virus; tested at 33 μM; ET (Huh-lucubineo-ET) replicon cells, luciferase activity, relative to no compound control; read-out: % inhibition of replication. As to the method:
A cell line, ET (Huh-lucubineo-ET) was used for screening of compounds of the present invention for HCV RNA dependent RNA polymerase. The ET cell line was stably transfected with RNA transcripts harboring a I389luc-ubi-neo/NS3-3′/ET; replicon with firefly luciferase-ubiquitin-neomycin phosphotransferase fusion protein and EMCV-IRES driven NS3-5B polyprotein containing the cell culture adaptive mutations (E1202G; T1280I; K1846T) (Krieger at al, 2001 and unpublished). The ET cells were grown in DMEM, supplemented with 10% fetal calf serum, 2 mM Glutamine, Penicillin (100 IU/mL)/Streptomycin (100 μg/mL), 1× nonessential amino acids, and 250 μg/mL G418 (“Geneticin”). They were all available through Life Technologies (Bethesda, Md.). The cells were plated at 0.5-1.0×10^4 cells/well in the 96 well plates and incubated for 24 hrs before adding nucleoside analogs. Then the compounds were added to the cells to achieve a final concentration of 5 or 50 μM. Luciferase activity was measured 48-72 hours later by adding a lysis buffer and the substrate (Catalog number Glo-lysis buffer E2661 and Bright-Glo leuciferase system E2620 Promega, Madison, Wis.). Cells should not be too confluent during the assay. Percent inhibition of replication was plotted relative to no compound control. Under the same condition, cytotoxicity of the compounds was determined using cell proliferation reagent, WST-1 (Roche, Germany). The compounds showing potent antiviral activities, but no significant cytotoxicities were chosen for further evaluation. For these determinations, a 10-point, 2-fold serial dilution for each compound was used which spans a concentration range of 1000 fold. IC50 and TC50 values were calculated by fitting % inhibition at each concentration to the following equation: % inhibition=100%/[(IC50/[I])^b+1] where b is Hill's coefficient.
The % inhibition at a particular concentration was determined using the following equation: % Inhibition=100−[100*(Lum with inhibitor-bg)/(Lum with no inhibitor-bg)] where bg was the background with no replicon cell, and Lum was the luminescence intensity of the reporter luciferase gene.
(In antiviral work, replicon cells carry a viral genome segment that copies itself.)
As a reminder, the inhibition is the change of the read-out against control, counted positive when it falls. Consider `Cc1nc(C)c(-c2ccc3cc(-c4c(C5CCCCC5)cc(C(=O)NCC(=O)O)n4CC(=O)N4CCOCC4)ccc3n2)s1` [Compound 33, 2-(4-cyclohexyl-5-(2-(2,4-dimethylthiazol-5-yl)quinolin-6-yl)-1-(2-morpholino-2-oxoethyl)-1H-pyrrole-2-carboxamido)acetic acid], for which the inhibition at 33 µM worked out at 17%. The figure for `Cc1nc(C)c(-c2ccc3cc(-c4c(C5CCCCC5)cc(C(=O)O)n4CC(=O)N4CCOCC4)ccc3n2)s1` [Compound 32, 4-cyclohexyl-5-(2-(2,4-dimethylthiazol-5-yl)quinolin-6-yl)-1-(2-morpholino-2-oxoethyl)-1H-pyrrole-2-carboxylic acid] is 57%. The figure for `Cc1nc(C)c(-c2ccc3cc(-c4c(C5CCCCC5)cc(C(=O)O)n4CC(=O)O)ccc3n2)s1` [Compound 30, 1-(carboxymethyl)-4-cyclohexyl-5-(2-(2,4-dimethylthiazol-5-yl)quinolin-6-yl)-1H-pyrrole-2-carboxylic acid] is 22%; for `Cc1nc(C)c(-c2ccc3cc(-c4c(C5CCCCC5)cc(C(=O)O)n4CC(=O)OC(C)(C)C)ccc3n2)s1` [Compound 31, 1-((tert-butoxycarbonyl)methyl)-4-cyclohexyl-5-(2-(2,4-dimethylthiazol-5-yl)quinolin-6-yl)-1H-pyrrole-2-carboxylic acid] it is 48%.

The record behind these values is patent US20060293320A1, “Heteroaryl derivatives for treating viruses” (Genelabs Technologies, Inc., priority 2005, published 2006).
